In US9085598B2, “Compounds targeting the cell invasion protein complex, their pharmaceutical compositions and methods of use thereof” (THE ROYAL INSTITUTE FOR THE ADVANCEMENT OF LEARNING/MCGILL …, priority 2011, dated 2015):
Read-outs that look alike come from different tables or passages of the source.

Columns and labels:
DU145 cells = experiment: Inhibition of cell proliferation, MTT metabolic assay; type: cell-based
Protocol: Exponentially growing DU145 or MDA-231 cells (1×10^3 cells) were seeded in 96-well plates. The final concentration of DMSO was less than 0.05%. After 96 hours, the cell survival was evaluated using 3-(4,5-dimethylthiazo-2-yl)-2,5-diphenyltetrazolium bromide (MTT) metabolic assay. The inhibitory activity (IC50) of the compounds on MDA-231 and DU145 cell proliferation was determined. The results are presented in Table 1 for a representative number of compounds.

MDA-231 cells = experiment: as above; type: cell-based; details: 96 hours continuous treatment, read-out: MDA231- IC50
Protocol: Exponentially growing DU145 or MDA-231 cells (1×10^3 cells) were seeded in 96-well plates. The final concentration of DMSO was less than 0.05%. After 96 hours, the cell survival was evaluated using 3-(4,5-dimethylthiazo-2-yl)-2,5-diphenyltetrazolium bromide (MTT) metabolic assay.

FAK = target: T1, FAK (Homo sapiens, UniProt Q05397); experiment: In vitro kinase activity (Kinase-Glo luminescence); type: biochemical; details: read-out: FAK inhibition (% at 1 μM)
T1 construct: Human recombinant full-length kinases were incubated in kinase buffer
Protocol: Human recombinant full-length kinases were incubated in kinase buffer containing ATP and substrate (Poly Glu:Tyr) for 4 hours at room temperature with or without the presence of the compounds listed in Table 1 at various concentrations. Remaining ATP in solution was then quantified using the Kinase-Glo-Iuminescence™ kit (Promega).

[1] = Homo sapiens, DU-145, 96 hours continuous treatment
[2] = Homo sapiens, MDA-MB-231, MDA-231 cell proliferation

T1 sequence (Q05397 whole entry): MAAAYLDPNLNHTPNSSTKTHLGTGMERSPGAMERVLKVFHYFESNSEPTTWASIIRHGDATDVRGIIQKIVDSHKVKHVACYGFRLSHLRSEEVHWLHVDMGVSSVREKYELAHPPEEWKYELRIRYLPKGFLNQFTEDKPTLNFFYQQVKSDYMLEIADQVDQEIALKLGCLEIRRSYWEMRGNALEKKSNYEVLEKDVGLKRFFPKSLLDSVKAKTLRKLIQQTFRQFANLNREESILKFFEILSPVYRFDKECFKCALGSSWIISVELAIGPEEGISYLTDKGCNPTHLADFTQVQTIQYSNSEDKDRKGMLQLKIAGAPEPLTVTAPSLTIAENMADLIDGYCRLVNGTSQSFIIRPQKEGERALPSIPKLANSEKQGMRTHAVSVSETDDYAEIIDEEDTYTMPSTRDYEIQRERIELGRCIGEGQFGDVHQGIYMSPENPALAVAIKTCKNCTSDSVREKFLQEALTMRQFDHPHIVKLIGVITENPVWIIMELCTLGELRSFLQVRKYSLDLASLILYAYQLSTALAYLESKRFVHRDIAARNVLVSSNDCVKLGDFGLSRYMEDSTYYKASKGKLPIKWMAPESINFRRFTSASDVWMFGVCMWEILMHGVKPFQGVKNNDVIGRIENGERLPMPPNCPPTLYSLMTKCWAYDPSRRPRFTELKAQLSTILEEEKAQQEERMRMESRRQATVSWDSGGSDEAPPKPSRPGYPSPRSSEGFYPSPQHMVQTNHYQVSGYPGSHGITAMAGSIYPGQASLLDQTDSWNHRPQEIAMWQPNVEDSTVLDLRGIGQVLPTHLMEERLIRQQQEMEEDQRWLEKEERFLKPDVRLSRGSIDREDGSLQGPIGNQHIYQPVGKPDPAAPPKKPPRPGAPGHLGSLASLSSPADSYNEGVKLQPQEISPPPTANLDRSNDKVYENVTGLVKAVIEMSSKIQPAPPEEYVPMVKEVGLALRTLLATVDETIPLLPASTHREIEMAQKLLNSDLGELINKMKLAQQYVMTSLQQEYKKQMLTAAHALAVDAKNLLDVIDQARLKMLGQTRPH

Structure (SMILES) | IC50 (DU145 cells; [1]) [µM] | IC50 (MDA-231 cells; [2]) [µM] | inhibition at 1 µM (FAK) [%] | IC50 (DU145 cells; 96 hours continuous treatment) [µM] | IC50 (MDA-231 cells; MDA-231 cell proliferation) [µM]
CC(=O)OCC1O[C@@H](n2[se]c3ccccc3c2=O)C(OC(C)=O)C(OC(C)=O)[C@@H]1OC(C)=O (stereo partly shown) [Compound 19] | 11.9 | 5.2 | – | – | –
CC(=O)OCC1O[C@@H](OC(=O)c2ccc(-n3[se]c4ccccc4c3=O)cc2)C(OC(C)=O)C(OC(C)=O)[C@@H]1OC(C)=O (stereo partly shown) [Compound 28] | – | 4.3 | 85 | – | –
CC(=O)OCC1O[C@@H](OC(=O)c2ccc(-n3[se]c4ccccc4c3=O)cc2)C(OC(C)=O)C(OC(C)=O)[C@@H]1O[C@@H]1OC(COC(C)=O)[C@H](OC(C)=O)C(OC(C)=O)C1OC(C)=O (stereo partly shown) [Compound 30] | – | 2.2 | 94 | – | –
CC(=O)OCC1O[C@@H](NC(=O)c2ccc(-n3[se]c4ccccc4c3=O)cc2)C(OC(C)=O)C(OC(C)=O)[C@@H]1OC(C)=O (stereo partly shown) [Compound 21] | – | 5.5 | 54 | – | –
O=c1c2ccccc2[se]n1[C@@H]1O[C@H](CO)[C@@H](O[C@@H]2O[C@H](CO)[C@H](O)[C@H](O)[C@H]2O)[C@H](O)[C@H]1O [Compound 5, 2-(1-deoxy-β-D-lactosyl)-1,2-benzisoselenazol-3(2H)-one] | – | – | – | 24.6 | 18.1
CC(=O)OC[C@H]1O[C@@H](n2[se]c3ccccc3c2=O)[C@H](OC(C)=O)[C@@H](OC(C)=O)[C@H]1OC(C)=O [Compound 2, 2-(1-deoxy-2,3,4,6-tetra-O-acetyl-β-D-galactopyranosyl)-1,2-benzisoselenazol-3(2H)-one] | – | – | – | 224 | > 100
O=C(CCCn1[se]c2ccccc2c1=O)N[C@@H]1OC(CO)[C@@H](O[C@@H]2OC(CO)[C@H](O)C(O)C2O)C(O)C1O (stereo partly shown) [Compound 16] | 39.7 | – | – | – | –
CC(=O)OCC1O[C@@H](NC(=O)c2ccc(-n3[se]c4ccccc4c3=O)cc2)C(OC(C)=O)C(OC(C)=O)[C@H]1OC(C)=O (stereo partly shown) [Compound 24] | – | 15.3 | 72 | – | –
O=c1c2ccccc2[se]n1-c1ccc(O[C@@H]2OC(CO)[C@@H](O)C(O)C2O)cc1 (stereo partly shown) [Compound 26] | – | 4.4 | 15 | – | –
O=C(OCC1O[C@@H](OC(=O)c2ccc(-n3[se]c4ccccc4c3=O)cc2)C(OC(=O)c2ccccc2)C(OC(=O)c2ccccc2)[C@@H]1OC(=O)c1ccccc1)c1ccccc1 (stereo partly shown) [Compound 31] | – | 22.9 | 8 | – | –
O=c1c2ccccc2[se]n1[C@@H]1O[C@H](CO)[C@H](O)[C@H](O)[C@H]1O [Compound 3, 2-(1-deoxy-β-D-galactopyranosyl)-1,2-benzisoselenazol-3(2H)-one] | – | – | – | 24.3 | 21
O=C(N[C@@H]1OC(CO)[C@H](O)C(O)C1O)c1ccc(-n2[se]c3ccccc3c2=O)cc1 (stereo partly shown) [Compound 23] | – | 12.7 | 32 | – | –
O=C(N[C@@H]1OC(CO)[C@@H](O)C(O)C1O)c1ccc(-n2[se]c3ccccc3c2=O)cc1 (stereo partly shown) [Compound 22] | – | 2.7 | 60 | – | –
CC(=O)OCC1O[C@@H](NC(=O)CCCn2[se]c3ccccc3c2=O)C(OC(C)=O)C(OC(C)=O)[C@@H]1O[C@@H]1OC(COC(C)=O)[C@H](OC(C)=O)C(OC(C)=O)C1OC(C)=O (stereo partly shown) [Compound 15] | 34.5 | – | – | – | –
CC(=O)OCC1O[C@@H](NC(=O)c2ccc(-n3[se]c4ccccc4c3=O)cc2)C(OC(C)=O)C(OC(C)=O)[C@@H]1O[C@@H]1OC(COC(C)=O)[C@H](OC(C)=O)C(OC(C)=O)C1OC(C)=O (stereo partly shown) [Compound 27] | – | 6.8 | 12 | – | –
O=c1c2ccccc2[se]n1CCO[C@@H]1OC(CO)[C@@H](O)C(O)C1O (stereo partly shown) [Compound 18] | 125 | > 100 | – | – | –
CC(=O)OCC1O[C@@H](Oc2ccc(-n3[se]c4ccccc4c3=O)cc2)C(OC(C)=O)C(OC(C)=O)[C@@H]1OC(C)=O (stereo partly shown) [Compound 25] | – | 11.4 | 65 | – | –
CC(=O)OCC1O[C@@H](OC(=O)c2ccc(-n3[se]c4ccccc4c3=O)cc2)C(OC(C)=O)C(OC(C)=O)[C@H]1OC(C)=O (stereo partly shown) [Compound 29] | – | 3.7 | 11 | – | –
